Our source for the IC50 values is patent publication US12172975B2, “1H-indazole carboxamides as receptor-interacting protein kinase 1 inhibitors (RIPK1)” (BRISTOL-MYERS SQUIBB COMPANY, priority 2018, dated 2024).

Assay [1] concerns the target His-GST-TVMV-hRIPK1 (1-324) (Homo sapiens (Human), UniProt Q13546). In words: RIPK1 HTRF Binding Assay. Conditions: read-out: RIPK1 HTRF (IC50); FRET probe displacement, 1 h at rt. In general terms: In TR-FRET formats the signal depends on donor and acceptor labels being close together.
Protocol: A solution was prepared containing 0.2 nM Anti GST-Tb (Cisbio, 61GSTTLB), 90.6 nM probe and 1 nM His-GST-TVMV-hRIPK1 (1-324) in FRET Buffer (20 mM HEPES, 10 mM MgCl2, 0.015% Brij-35, 4 mM DTT, 0.05 mg/mL BSA). Using Formulatrix Tempest, the detection antibody/enzyme/probe solution (2 mL) was dispensed into wells of a 1536 plate (Black Low Binding Polystyrene 1536 Plate (Corning, 3724)) containing 10 nL of compounds of interest at appropriate concentration in DMSO. The plate was incubated at rt for 1 h. FRET was measured using the EnVision plate reader (Excitation: 340 nm, Emission: 520 nm/495 nM). Total signal (0% inhibition) was calculated from wells containing 10 nL DMSO only.
Assay [2] relates to MLKL phosphorylation in HT29-L23 human colorectal adenocarcinoma cells. Briefly: MLKL Phosphorylation High-Content Assay. The note with it: 6 h, necroptosis induced with TNFα, SMAC mimetic and Z-VAD, read-out: pMLKL (IC50). The format is cell-based. Put shortly:
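HT29-L23 cells were induced to necroptosis with TNFα (35 ng/mL), SMAC mimetic (700 nM) and Z-VAD (140 nM) for 6 h at 37 °C. Phospho-MLKL (S358) immunofluorescence was imaged and quantified per cell; maximal inhibition set by Nec-1s (6.25 μM), and IC50/Ymax from 4-parameter logistic fit.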

Structures can show the parent of a compound that is named as a salt. Where two headings read alike, the source gives them in different places.

His-GST-TVMV-hRIPK1 (1-324), sequence (Q13546 1-324): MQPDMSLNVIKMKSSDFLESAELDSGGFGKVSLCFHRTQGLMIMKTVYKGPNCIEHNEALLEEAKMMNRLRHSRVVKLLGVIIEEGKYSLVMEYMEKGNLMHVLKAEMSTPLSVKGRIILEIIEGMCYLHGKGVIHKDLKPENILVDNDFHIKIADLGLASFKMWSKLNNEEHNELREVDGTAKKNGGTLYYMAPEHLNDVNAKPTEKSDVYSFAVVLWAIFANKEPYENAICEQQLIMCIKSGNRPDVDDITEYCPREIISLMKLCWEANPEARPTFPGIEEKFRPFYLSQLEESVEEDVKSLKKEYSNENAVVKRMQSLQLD

As to `CCCN(CC1CC1)C(=O)C1CCCC(NC(=O)c2cc(-c3ccc4c(C(=O)NC)n[nH]c4c3)cnc2OC)C1` (stereo not shown) [Example 123, 6-[5-({3-[(cyclopropylmethyl)-(propyl)carbamoyl]cyclohexyl}-carbamoyl)-6-methoxypyridin-3-yl]-N-methyl-1H-indazole-3-carboxamide], the IC50 (usually the concentration that inhibits the measured activity by half) in assay [1] stood at 21 nM; in assay [2] (Homo sapiens) it was 75 nM.
For `CNC(=O)c1n[nH]c2cc(-c3cnc(OC)c(C(=O)NCc4cccc(OCC5CCC5)c4)c3)ccc12` [Example 115, 6-[5-({[3-(cyclobutylmeth-oxy)phenyl]methyl}carbam-oyl)-6-methoxypyridin-3-yl]-N-methyl-1H-indazole-3-carboxamide], the values for the IC50 in assay [1] and in assay [2] were 0.04 nM and 100 nM, respectively.
In the same order, the values of `CNC(=O)c1n[nH]c2cc(-c3cnc(OC)c(C(=O)NCC4CCCN4C(=O)C(C)(C)C(F)(F)F)c3)ccc12` (stereo not shown) [Example 96, 6-[6-methoxy-5-({[1-(3,3,3-trifIuoro-2,2-dimethylpropan-oyl)pyrrolidin-2-yl]methyl}-carbamoyl)pyridin-3-yl]-N-methyl-1H-indazole-3-carboxamide] are 34 nM and 4.6 nM.
In the same order, the values of `COc1ncc(-c2ccc3c(C(=O)NC4CC4)n[nH]c3c2)cc1C(=O)N[C@@H](C)c1cc(C(F)(F)F)ccc1F` [Example 208, N-cyclopropyl-6-(5-{[(1S)-1-[2-fluoro-5-(trifluoromethyl)phenyl]-(2,2,2-deutero)ethyl]carbamoyl}-6-(deutero)methoxypyridin-3-yl)-1H-indazole-3-carboxamide, TFA] are 27 nM and 18 nM.
For `[2H]C([2H])([2H])NC(=O)c1n[nH]c2cc(-c3cnc(OC)c(C(=O)NC(C)c4ccccc4OC(F)(F)F)c3)ccc12` (stereo not shown) [Example 152, 6-[6-methoxy-5-({1-[2-(tri-fluoromethoxy)phenyl]ethyl}-carbamoyl)pyridin-3-yl]-N-(deutero)methyl-1H-indazole-3-carboxamide], the IC50 in assay [1] was found to be 20 nM; in assay [2] (Homo sapiens), 3.3 nM.
In the same order, the values of `CNC(=O)c1n[nH]c2cc(-c3cnc(OC)c(C(=O)NCc4cccc(OC(F)(F)F)c4F)c3)ccc12` [Example 119, 6-[5-({[2-fluoro-3-(trifluoro-methoxy)phenyl]methyl}-carbamoyl)-6-methoxy-pyridin-3-yl]-N-methyl-1H-indazole-3-carboxamide] are 33 nM and 110 nM.
In the same order, the values of `[2H]C([2H])([2H])Oc1ncc(-c2ccc3c(C(=O)NC4CCC(N(C([2H])([2H])[2H])C([2H])([2H])[2H])CC4)n[nH]c3c2)cc1C(=O)NC(C)c1cccc(OC(F)(F)F)c1` (stereo not shown) [Example 23, N-(4-(dimethyld6-amino)cyclohexyl)-6-(6-methoxyd3-5-((1-(3-(trifluoromethoxy)phenyl)ethyl)carbamoyl)pyridin-3-yl)-1H-indazole-3-carboxamide] are 24 nM and 140 nM.
In the same order, the values of `[2H]C([2H])([2H])NC(=O)c1n[nH]c2cc(-c3cnc(OC([2H])([2H])[2H])c(C(=O)N[C@H](C)c4ccccc4OC(F)(F)F)c3)ccc12` [Example 7, (R)-6-(6-(methoxy-d3)-5-((1-(2-(trifluoromethoxy)phenyl)ethyl)carbamoyl)pyridin-3-yl)-N-(methyl-d3)-1H-indazole-3-carboxamide] are 8.5 nM and 4.6 nM.
With `CNC(=O)c1n[nH]c2cc(-c3cnc(C)c(C(=O)NC(C)c4cccc(OC(F)(F)F)c4)c3)ccc12` (single isomer, unassigned) [Example 155, N-methyl-6-[6-methyl-5-({1-[3-(tri-fluoromethoxy)phenyl]ethyl}car-bamoyl)pyridin-3-yl]-1H-indazole-3-carboxamide], the values for the half-inhibitory concentration (IC50) in assay [1] and in assay [2] were 13 nM and 22 nM, respectively.
With `CNC(=O)c1n[nH]c2cc(-c3cnc(OC)c(C(=O)NCC4(c5ccccc5OC(F)(F)F)CC4)c3)ccc12` [Example 72, 6-{6-methoxy-5-[({1-[2-(tri-fluoromethoxy)phenyl]cyclo-propyl}methyl)carbamoyl]-pyridin-3-yl}-N-methyl-1H-indazole-3-carboxamide], the IC50 in assay [1] worked out at 390 nM; in assay [2] (Homo sapiens) it was 400 nM.
In the same order, the values of `[2H]C([2H])([2H])Oc1ncc(-c2ccc3c(C(=O)NCC(C)(C)F)n[nH]c3c2)cc1C(=O)N[C@@H]1CN(C(=O)C2CC(F)(F)C2)C[C@@H]1F` [Example 193, 6-(5-{[(3R,4S)-1-(3,3-difluorocyclo-butanecarbonyl)-4-fluoropyrrolidin-3-yl]carbamoyl}-6-(deutero)methoxy-pyridin-3-yl)-N-(2-fluoro-2-methyl-propyl)-1H-indazole-3-carboxamide] are 260 nM and 480 nM.
For `[2H]C([2H])([2H])Oc1ncc(-c2ccc3c(C(=O)NC4CC(F)(F)C4)n[nH]c3c2)cc1C(=O)N[C@@H]1CN(C(=O)C2CC(F)(F)C2)C[C@@H]1F` [Example 191, 6-(5-{[(3R,4S)-1-(3,3-difluorocyclo-butanecarbonyl)-4-fluoropyrrolidin-3-yl]carbamoyl}-6-(deutero)methoxy-pyridin-3-yl)-N-(3,3-difluorocyclo-butyl)-1H-indazole-3-carboxamide], the IC50 in assay [1] came out at 120 nM; in assay [2] (Homo sapiens), 89 nM.
In the same order, the values of `[2H]C([2H])([2H])NC(=O)c1n[nH]c2cc(-c3cnc(OC)c(C(=O)NCC(C)(C)C(=O)OC4CCOCC4)c3)ccc12` [Example 148, oxan-4-yl 3-[(2-methoxy-5-{3-[(deutero)methylcarbamoyl]-1H-indazol-6-yl}pyridin-3-yl)formamido]-2,2-dimethyl-propanoate] are 54 nM and 96 nM.
In the same order, the values of `[2H]C([2H])([2H])NC(=O)c1n[nH]c2cc(-c3cnc(OC)c(C(=O)NCC(C)(C)C(=O)OC(C)(C)C)c3)ccc12` [Example 149, tert-butyl 3-[(2-methoxy-5-{3-[(deutero)methylcarbamoyl]-1H-indazol-6-yl}pyridin-3-yl)-formamido]-2,2-dimethyl-propanoate] are 33 nM and 74 nM.
As to `CNC(=O)c1n[nH]c2cc(-c3cnc(OC)c(C(=O)NCC4(C(=O)OC5CCCC5)CC4)c3)ccc12` [Example 140, cyclopentyl 1-[({2-methoxy-5-[3-(methylcarbamoyl)-1H-indazol-6-yl]pyridin-3-yl}-formamido)methyl]cyclopro-pane-1-carboxylate], the half-inhibitory concentration (IC50) in assay [1] stood at 6.9 nM; in assay [2], 18 nM.
Consider `[2H]C([2H])([2H])NC(=O)c1n[nH]c2cc(-c3cnc(OC)c(C(=O)NCCC(=O)OC(C)(C)C)c3)ccc12` [Example 150, tert-butyl 3-[(2-methoxy-5-{3-[(deutero)methylcarbamoyl]-1H-indazol-6-yl}pyridin-3-yl)-formamido]propanoate], for which the IC50 amounted to 32 nM in assay [1] and 110 nM in assay [2] (Homo sapiens).
As for “N-[(1,1,2,2,2-deutero)ethyl]-6-(5- {[(1R)-1-[2-fluoro-5-(trifluoro- methoxy)phenyl]ethyl]carbamoyl}- 6-(deutero)methoxypyridin-3-yl)- 1H-indazole-3-carboxamide [Example 225]”, the values for the IC50 in assay [1] and in assay [2] were 43 nM and 91 nM, respectively.
On to `CCNC(=O)c1n[nH]c2cc(-c3cnc(OC)c(C(=O)NCc4ccccc4OC(F)(F)F)c3)ccc12` [Example 170, N-ethyl-6-[6-methoxy-5-({[2-(trifluoromethoxy)phenyl]-methyl}carbamoyl)pyridin-3-yl]-1H-indazole-3-carboxamide], for which the IC50 in assay [1] came to 7.9 nM; in assay [2] (Homo sapiens), 23 nM.
In the case of `CNC(=O)c1n[nH]c2cc(-c3cnc(OC)c(-c4nnn(Cc5ccccc5)n4)c3)ccc12` [Example 20, 6-[5-(2-benzyl-2H-1,2,3,4-tetrazol-5-yl)-6-methoxypyridin-3-yl]-N-methyl-1H-indazole-3-carboxamide], the IC50 in assay [1] came to 66 nM; in assay [2] (Homo sapiens), 27 nM.
In the same order, the values of `[2H]C([2H])([2H])Oc1ncc(-c2ccc3c(C(=O)NC4CC4)n[nH]c3c2)cc1C(=O)NCC(C)(C)C(=O)OC(C)(C)C` [Example 200, tert-butyl 3-({5-[3-(cyclopropyl-carbamoyl)-1H-indazol-6-yl]-2-(deutero)methoxypyridin-3-yl}-formamido)-2,2-dimethyl-propanoate] are 130 nM and 79 nM.
In the same order, the values of `CNC(=O)c1n[nH]c2cc(-c3cnc(OC)c(C(=O)NCC[C@H](O)c4ccc(Cl)cc4)c3)cc(F)c12` [Example 145, 6-(5-{[(3S)-3-(4-chloro-phenyl)-3-hydroxypropyl]-carbamoyl}-6-methoxy-pyridin-3-yl)-4-fluoro-N-methyl-1H-indazole-3-carboxamide] are 9.6 nM and 200 nM.
Take `CNC(=O)c1n[nH]c2cc(-c3cnc(OC)c(C(=O)NC[C@@H]4CCCC[C@H]4NC(=O)OC(C)(C)C)c3)ccc12` [Example 77, tert-butyl N-[(1R,2S)-2-[({2-methoxy-5-[3-(methylcarbam-oyl)-1H-indazol-6-yl]pyridin-3-yl}formamido)methyl]-cyclohexyl]carbamate]: the half-maximal inhibitory concentration (IC50) was 3.8 nM in assay [1] and 78 nM in assay [2].
Regarding `[2H]C([2H])([2H])Oc1ncc(-c2ccc3c(C(=O)NC4CC4)n[nH]c3c2)cc1C(=O)N[C@H](C)c1ccccc1OC(F)(F)F` [Example 13, (R)—N-cyclopropyl-6-(6-methoxyd3-5-((1-(2-(trifluoromethoxy)phenyl)ethyl)carbamoyl)pyridin-3-yl)-1H-indazole-3-carboxamide], the IC50 in assay [1] was found to be 5.5 nM; in assay [2] (Homo sapiens), 5.1 nM.
